This is an account of results in patent publication US20080241870A1, “Composition For Creating an Artificial Bone Marrow Like Environment and Use Thereof” (NATIONAL CENTRE FOR CELL SCINECES, priority 2005, published 2008).

This test has as its system mesenchymal cells (ABME) with MNC. Briefly: quantitative hematopoietic colony formation assay for ABME (HCFA-ABME): MNC with hematomodulator-contacted mesenchymal cells. The format is cell-based, human. An excerpt:
As described above, the medium for blood cell formation employed may be IMDM with 20% serum and supplemented with interleukins such as IL-lbeta, IL-3, and IL-6, stem cell factor, lineage specific growth factors such as erythropoietin and GM-CSF, G-CSF; and methyl cellulose to the extent of 0.8%, the culture is maintained for 12-14 days under the culture conditions whereby blood cell colonies grow well or form colonies and clearly the growth is visible/distinguishable for further analysis and use. An assay designed in a similar manner to assess quantitative nature of ABME function is referred hereafter as ‘quantitative hematopoietic colony formation assay for ABME (HCFA-ABME)’.
Several experiments were conducted to determine that mesenchymal cells exert direct influence on SPC cell-fate. In one set of experiments, mesenchymal cells were cultured separately and nearly 50,000 of them were exposed to a typical HCFA medium comprising 0.8% methyl cellulose in IMDM and 20-30% serum along with excess amounts of various purified and human specific cytokines and hematopoietic colony stimulating growth factors (from Stem cell Technologies, […], Canada). More specifically, the quantities of hematopoietic growth factors used routinely in HCFA were, 2 International Units per milliliter (2 I.U.ml^−1) of Erythropietin (EPO), 50 nanogram per milliliter (50 ng.ml^−1) of Stem Cell Factor (SCF) and 20 nanogram per milliliter (20 ng/ml^−1) each of Granulocyte-Macrophage-Colony Stimulating Factor (GM-CSF), Granulocyte-Colony Stimulating Factor (G-CSF), Interleukin-1 beta (IL-1β), Interleukin-3 (IL-3) and Interleukin-6 (IL-6) {all growth factors and cytokines are from Stem cell Technologies, Vancouver, Canada,}.
In another set of experiments, 50,000 of the same mesenchymal cells were first mixed with nearly 100,000 MNC, held at 37° C. for at least 30 minutes and were processed for colony formation assays. In several experiments, a consistent improvement in the number and cellularity of the hematopoietic colonies was seen when both these two cell types were mixed compared to a reference where only the cells of MNC were used. The increase was ranging from 1.5 to 10-fold. Thus, the enhancement in colony formation obtained with the use of only mesenchymal cells was highly variable and unpredictable among samples. The fact that hematopoietic colonies formed in increased numbers and cellularity only when MNC and mesenchymal cells were processed together is evidence of a new environment created by the mesenchymal cells in which the SPC present in the MNC were more productive. This increase results in activation of the pre-existing but quiescent SPC, formation of new SPC due to self-renewal, and a combination of both factors.
In order to create ABME, the mesenchymal cells were covered with the contacting medium comprising hematomodulators contained in IMDM with 20% human serum or fetal bovine serum for a desirable period (range 8-24 hours) and removed. The contacted cells were then washed 2 times using the contacting medium (IMDM +20% FCS) without hematomodulators and used as such or after harvesting the mesenchymal cells, which now represent the composition of in vitro ABME. Optionally, ABME cells can be configured on supports that will distribute them in two or more dimensions for better results. A requisite number of MNC/SPC and cells of the ABME are taken and kept together for a suitable duration (range 0.5 to 6 hours) after which they were processed for in vitro hematopoietic colony formation assays or hematopoiesis.
Thus, the inventors undertook 4 sets of experiments: (a) wherein mononuclear cells were exposed to mesenchymal cells without any treatment; (b) wherein MNC were exposed to mesenchymal cells contacted with a biological agent [TGFβ1] […]

Regarding “HumanTransforming Growth Factor beta1 [TGFβ1]”, the “efficiency of ABME created” value (1-25 nano gram.ml^-1, mesenchymal cells contacted 8-24 hours) is recorded as “equally efficient ABME”. Under “MNC exposed to mesenchymal cells contacted with the agent, compared with (A) untreated mesenchymal cells, FIG. 1”, the “blood cell colonies formed (number, cellularity)” value is “greater in number and of higher cellularity than (A)”. The “colony formation along lineages GEMM, BFU-E and GM” value (lineage specific colony formation assay, FIG. 3A, vs control without biological agent) is reported as “uniformly stimulated”. Further, where the note is “used separately”, the “potency in creating ABME from mesenchymal cells” value is on record as “nearly equipotent”.
